What was measured:
[1] = organism: Homo sapiens; test: Selectivity ratio Ki for human dopamine D2L receptor to Ki for human dopamine D3 receptor
[2] = biological target: D(2) dopamine receptor (Homo sapiens, UniProt P14416); test: Displacement of [125I]-IABN from human dopamine D2L receptor expressed in HEK293 cells after 60 mins by gamma counting; type: cell-based
[3] = biological target: T1, D(3) dopamine receptor (Homo sapiens, UniProt P35462); test: Displacement of [125I]-IABN from human dopamine D3 receptor expressed in HEK293 cells after 60 mins by gamma counting; type: cell-based
T1 sequence (P35462 whole entry): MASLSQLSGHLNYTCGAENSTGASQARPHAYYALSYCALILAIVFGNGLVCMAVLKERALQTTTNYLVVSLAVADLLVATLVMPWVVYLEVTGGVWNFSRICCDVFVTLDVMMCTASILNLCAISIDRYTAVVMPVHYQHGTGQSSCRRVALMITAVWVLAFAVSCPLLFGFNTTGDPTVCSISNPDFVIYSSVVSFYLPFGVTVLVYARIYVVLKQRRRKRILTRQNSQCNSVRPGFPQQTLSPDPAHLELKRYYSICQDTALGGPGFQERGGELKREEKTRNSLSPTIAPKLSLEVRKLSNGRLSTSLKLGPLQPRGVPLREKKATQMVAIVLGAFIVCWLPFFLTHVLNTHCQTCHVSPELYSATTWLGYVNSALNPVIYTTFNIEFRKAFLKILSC

[4] = biological target: T2, 5-hydroxytryptamine receptor 1A (Homo sapiens, UniProt P08908); test: Agonist activity at 5HT1A receptor assessed as stimulation of [35S]GTPgammaS binding; type: functional
T2 sequence (P08908 whole entry): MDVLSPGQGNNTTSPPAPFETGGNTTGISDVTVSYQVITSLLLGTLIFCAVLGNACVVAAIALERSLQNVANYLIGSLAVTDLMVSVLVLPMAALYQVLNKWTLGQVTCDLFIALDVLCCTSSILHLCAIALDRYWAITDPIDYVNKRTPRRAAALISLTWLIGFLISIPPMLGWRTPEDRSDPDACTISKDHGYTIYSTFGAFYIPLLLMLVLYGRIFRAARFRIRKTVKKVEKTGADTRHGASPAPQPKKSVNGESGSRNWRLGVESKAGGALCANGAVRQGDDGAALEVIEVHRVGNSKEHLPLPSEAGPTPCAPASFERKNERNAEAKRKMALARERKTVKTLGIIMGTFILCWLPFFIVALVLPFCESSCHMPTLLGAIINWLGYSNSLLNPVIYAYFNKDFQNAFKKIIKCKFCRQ

[5] = biological target: T2, 5-hydroxytryptamine receptor 1A; test: Displacement of [3H]8-OH-DPAT from 5HT1A receptor
[6] = biological target: 5-hydroxytryptamine receptor 2A (Homo sapiens, UniProt P28223)
Chain of 5-hydroxytryptamine receptor 2A (P28223 whole entry): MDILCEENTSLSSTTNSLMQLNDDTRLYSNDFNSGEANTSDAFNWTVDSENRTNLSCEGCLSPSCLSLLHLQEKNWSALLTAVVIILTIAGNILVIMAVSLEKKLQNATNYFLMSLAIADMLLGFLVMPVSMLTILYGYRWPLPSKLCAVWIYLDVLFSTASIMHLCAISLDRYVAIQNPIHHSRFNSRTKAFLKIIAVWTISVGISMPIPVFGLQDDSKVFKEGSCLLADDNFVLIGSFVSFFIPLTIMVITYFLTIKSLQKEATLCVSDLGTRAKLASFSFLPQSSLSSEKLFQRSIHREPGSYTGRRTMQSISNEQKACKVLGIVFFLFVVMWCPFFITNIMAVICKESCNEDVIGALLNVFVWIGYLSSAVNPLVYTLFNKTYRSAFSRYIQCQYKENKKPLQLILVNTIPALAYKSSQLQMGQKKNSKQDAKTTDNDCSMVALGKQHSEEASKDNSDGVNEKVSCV

[7] = biological target: T1, D(3) dopamine receptor; test: Antagonist activity at human dopamine D3 receptor expressed in CHOp cells assessed as inhibition of quinpirole-induced mitogenesis; type: functional, cell-based
[8] = biological target: T3, 5-hydroxytryptamine receptor 1A (Homo sapiens) (UniProt P08908); test: Agonist activity at 5HT1A receptor assessed as stimulation of [35S]GTPgammaS binding relative to control; type: functional; parameters: concentration or dose not given beside the values
T3 sequence (whole entry): T2 sequence (P08908 whole entry)

[9] = biological target: T1, D(3) dopamine receptor; test: Antagonist activity at human dopamine D3 receptor expressed in CHO-K1 cells assessed as inhibition of dopamine-induced recruitment of beta-arrestin-2 at 10 uM after 90 mins by beta-galactosidase assay; type: functional, cell-based
[10] = biological target: T4, D(4) dopamine receptor (Homo sapiens, UniProt P21917); test: Displacement of [125I]-IABN from human dopamine D4 receptor expressed in HEK293 cells after 60 mins by gamma counting; type: cell-based
T4 sequence (P21917 whole entry): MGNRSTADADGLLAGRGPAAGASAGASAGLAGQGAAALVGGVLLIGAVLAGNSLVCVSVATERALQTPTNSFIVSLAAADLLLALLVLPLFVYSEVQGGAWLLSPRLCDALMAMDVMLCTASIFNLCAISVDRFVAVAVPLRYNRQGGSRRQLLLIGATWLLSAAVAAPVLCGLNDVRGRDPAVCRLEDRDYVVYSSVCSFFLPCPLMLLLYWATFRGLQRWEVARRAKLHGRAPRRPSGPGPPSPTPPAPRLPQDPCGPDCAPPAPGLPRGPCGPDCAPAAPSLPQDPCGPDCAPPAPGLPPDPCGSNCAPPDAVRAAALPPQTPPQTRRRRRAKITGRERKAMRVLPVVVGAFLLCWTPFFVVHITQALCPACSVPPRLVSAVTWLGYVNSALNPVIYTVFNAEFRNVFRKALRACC

[11] = biological target: T3, 5-hydroxytryptamine receptor 1A (Homo sapiens); test: Displacement of [3H]8-OH-DPAT from 5HT1A receptor at 10 uM
[12] = Binding affinity to human dopamine D2/D3 receptor chimera C expressed in HEK293 cells; type: cell-based
[13] = Binding affinity to human dopamine D2/E2 loop of D3 receptor expressed in HEK293 cells; type: cell-based
[14] = Binding affinity to human dopamine D2/D3 receptor chimera B expressed in HEK293 cells; type: cell-based
[15] = biological target: T1, D(3) dopamine receptor; test: Antagonist activity at human dopamine D3 receptor expressed in CHO-K1 cells assessed as inhibition of dopamine-induced recruitment of beta-arrestin-2 after 90 mins by beta-galactosidase assay; type: functional, cell-based

Chain of D(2) dopamine receptor (P14416 whole entry): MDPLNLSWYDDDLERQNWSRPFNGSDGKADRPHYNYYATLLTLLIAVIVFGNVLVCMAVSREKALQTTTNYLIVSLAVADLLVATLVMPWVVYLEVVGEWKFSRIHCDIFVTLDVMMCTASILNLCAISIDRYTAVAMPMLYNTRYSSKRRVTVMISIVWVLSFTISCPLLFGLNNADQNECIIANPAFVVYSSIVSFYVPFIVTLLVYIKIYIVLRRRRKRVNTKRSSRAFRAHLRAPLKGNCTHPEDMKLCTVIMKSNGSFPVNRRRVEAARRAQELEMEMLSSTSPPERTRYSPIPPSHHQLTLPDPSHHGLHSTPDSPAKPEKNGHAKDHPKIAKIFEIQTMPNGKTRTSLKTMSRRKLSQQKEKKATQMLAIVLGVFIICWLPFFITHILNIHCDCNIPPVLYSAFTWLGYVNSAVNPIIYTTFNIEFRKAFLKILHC

Row | Structure (SMILES) | Ratio Ki [1] | Ki [2] [nM] | Ki [3] [nM] | EC50 [4] [nM] | Ki [5] [nM] | Ki [6] [nM] | IC50 [7] [nM] | Activity [8] [%] | inhibition [9] [%] | Ki [10] [nM] | inhibition [11] [%] | Kd [12] [nM] | Kd [13] [nM] | Kd [14] [nM] | IC50 [15] [nM]
1 | OC(CCNCc1ccc2c(c1)Cc1ccccc1-2)CN1CCN(c2cccc(Cl)c2Cl)CC1 (configuration not stated) | 16 | 2090 | 134 | – | – | – | – | – | – | – | – | – | – | – | –
2 | COc1ccccc1N1CCN(CC(F)CCNC(=O)c2cc3ccccc3o2)CC1 (configuration not stated) | 11 | 329 | 28.6 | 134 | 37.9 | 4800 | 440 | 60 | – | – | – | – | – | – | –
3 | COc1ccc2oc(C(=O)NCCC(F)CN3CCN(c4cccc(Cl)c4Cl)CC3)cc2c1 (configuration not stated) | 35 | 279 | 8 | – | 501 | 274 | 1430 | – | < 50 | – | – | – | – | – | –
4 | CCCN(CCCCN1CCN(c2cccc(Cl)c2Cl)CC1)Cc1cc2ccccc2s1 | 2 | 162 | – | – | – | – | – | – | – | – | – | – | – | – | –
5 | CN(CCC(O)CN1CCN(c2cccc(Cl)c2Cl)CC1)Cc1ccc2c(c1)Cc1ccccc1-2 (configuration not stated) | 5 | 869 | 162 | – | – | – | – | – | – | – | – | – | – | – | –
6 | CCCN(CCCCN1CCN(c2cccc(Cl)c2Cl)CC1)Cc1ccc2c(c1)Cc1ccccc1-2 | 2 | 269 | 129 | – | – | – | – | – | – | – | – | – | – | – | –
7 | COc1ccccc1N1CCN(CC(F)CCNC(=O)c2cc3ccccc3[nH]2)CC1 (configuration not stated) | 44 | 421 | 9.5 | 1430 | 101 | 3240 | 820 | 83 | < 50 | 1490 | – | – | – | – | –
8 | CCCN(CCCCN1CCN(c2ccccc2OC)CC1)Cc1ccc2c(c1)Cc1ccccc1-2 | 3 | 196 | 71.5 | – | – | – | – | – | – | – | – | – | – | – | –
9 | O=C(NCCC(F)CN1CCN(c2cccc(Cl)c2Cl)CC1)c1ccc(-c2ccccn2)cc1 (configuration not stated) | – | 378 | 6.2 | 1080 | 159 | 98 | 256 | – | – | 3090 | – | – | – | – | –
10 | O=C(NCCC(F)CN1CCN(c2cccc(Cl)c2Cl)CC1)c1ccc2ccccc2c1 (configuration not stated) | 32 | 195 | 6.1 | – | – | 1910 | 255 | – | < 50 | – | < 50 | – | – | – | –
11 | O=C(NCCC(F)CN1CCN(c2cccc(Cl)c2Cl)CC1)c1cc2ccccc2o1 (configuration not stated) | – | – | – | – | – | – | – | – | – | – | – | 0.02 | 0.08 | 0.02 | –
12 | COc1ccccc1N1CCN(CC(F)CCNC(=O)c2ccc3c(c2)Cc2ccccc2-3)CC1 (configuration not stated) | 286 | 2890 | 10.1 | – | 299 | > 10000 | 214 | – | < 50 | 3180 | – | – | – | – | –
13 | CCCN(CCCCN1CCN(c2ccccc2OC)CC1)Cc1cc2ccccc2s1 | 1 | 69.9 | 67.9 | – | – | – | – | – | – | – | – | – | – | – | –
14 | O=C(NC/C=C/CN1CCN(c2cccc(Cl)c2Cl)CC1)c1ccc(-c2ccccn2)cc1 | 133 | – | – | – | – | – | – | – | – | – | – | – | – | – | –
15 | CCCN(CCCCN1CCN(c2cccc(Cl)c2Cl)CC1)Cc1ccc2ccccc2c1 | 3 | 313 | 104 | – | – | – | – | – | – | – | – | – | – | – | –
16 | COc1ccccc1N1CCN(CC(F)CCNC(=O)c2ccc(-c3ccccn3)cc2)CC1 (configuration not stated) | 19 | 390 | 20.5 | 71.6 | 49 | 2060 | 390 | 73 | – | – | – | – | – | – | 699
17 | FC(CCNCc1ccc2c(c1)Cc1ccccc1-2)CN1CCN(c2cccc(Cl)c2Cl)CC1 (configuration not stated) | 11 | 5270 | 467 | – | – | – | – | – | – | – | – | – | – | – | –
18 | O=C(NCCC(F)CN1CCN(c2cccc(Cl)c2Cl)CC1)c1cc2ccccc2[nH]1 (configuration not stated) | 131 | 526 | 4 | 2140 | 223 | 212 | – | 88 | – | 3360 | – | – | – | – | 1220
19 | COc1ccc2[nH]c(C(=O)NCCC(F)CN3CCN(c4cccc(Cl)c4Cl)CC3)cc2c1 (configuration not stated) | 153 | 230 | 1.5 | – | – | 272 | 320 | – | < 50 | – | < 50 | – | – | – | –
20 | O=C(NCCC(F)CN1CCN(c2cccc(Cl)c2Cl)CC1)c1cc2ccccc2s1 (configuration not stated) | 163 | 472 | 2.9 | – | 2140 | 3290 | 17 | – | – | – | – | – | – | – | 3770
21 | CCCN(CCCCN1CCN(c2ccccc2OC)CC1)Cc1ccc2ccccc2c1 | 1.5 | 119 | 80.8 | – | – | – | – | – | – | – | – | – | – | – | –
22 | COc1ccccc1N1CCN(CC(F)CCNC(=O)c2cc3ccccc3s2)CC1 (configuration not stated) | 63 | 241 | 3.8 | 440 | 139 | 3030 | 83 | 57 | – | – | – | – | – | – | 3210
23 | CN(CCC(F)CN1CCN(c2cccc(Cl)c2Cl)CC1)Cc1ccc2c(c1)Cc1ccccc1-2 (configuration not stated) | 5 | 2060 | 393 | – | – | 2580 | 918 | – | – | – | < 50 | – | – | – | –
24 | O=C(NCCC(F)CN1CCN(c2cccc(Cl)c2Cl)CC1)c1ccc2c(c1)Cc1ccccc1-2 (configuration not stated) | 1640 | 4260 | 2.6 | – | 6000 | 4800 | 800 | – | < 50 | – | – | – | – | – | –
25 | COc1ccc2oc(C(=O)NCCC(F)CN3CCN(c4ccccc4OC)CC3)cc2c1 (configuration not stated) | 20 | 274 | 13.9 | 600 | 73 | 3000 | 780 | 76 | – | – | – | – | – | – | 1240
26 | COc1ccc2[nH]c(C(=O)NCCC(F)CN3CCN(c4ccccc4OC)CC3)cc2c1 (configuration not stated) | 66 | 302 | 4.6 | – | 1170 | 3540 | 1140 | – | – | – | – | – | – | – | 2990

From ChEMBL document CHEMBL1772985, “N-(3-fluoro-4-(4-(2-methoxy or 2,3-dichlorophenyl)piperazine-1-yl)butyl)arylcarboxamides as selective dopamine D3 receptor ligands: critical role of the carboxamide linker for D3 receptor selectivity” (J Med Chem, 2011)
